Marks after values point to notes of the source that are not given here.
Columns and labels:
HBV-specific T cells = details: cumulative over papers, responder = positive multimer staining and/or IFN-γ ELISPOT, ref Hepitopes database [24], [49], cited from earlier work; for % responders (no. of responders/total no. of subjects tested), HCC: HBV-positive HCC patients; for % responders (no. of responders/total no. of subjects tested), Chronic: chronic HBV patients; for % responders (no. of responders/total no. of subjects tested), Acute: patients with acute/resolved HBV infection, asterisk = significantly more prevalent than in other groups;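 as to all read-outs here: responder rates refer to previously reported epitopes of HBx or polymerase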
HLA-A*24:02 = HLA-A*24:02 (Homo sapiens, UniProt P04439, D101N/D140Y/D185E/E176V/E190D/F33S/G103R/G107R/I119L/I121M/I306V/K335N/L105A/L180Q/L300P/N151K/N90K/Q86E/Q94H/R106L/R138H/R89G/T104I/T345S/V100E/W191G/Y123F); assay: UV-based in vitro HLA binding assay (peptide exchange + HLA-I ELISA), HLA-A*24:02; details: conditional pHLA 0.53 μM, peptide 50 μM, 30 min 366-nm UV, absorbance 414 nm normalized to high-affinity positive control (100%), two exchanges, each in duplicate
Protocol: (§1) Next, the HLA-binding capacity of selected peptides was tested in a UV-based in vitro binding assay. […] HLA-A*11:01 and HLA-A*03:01 were both tested as members of the HLA-A*03 supertype since many HBV-infected patients are Asian and HLA-A*11:01 is more prevalent in this population than the supertype representative HLA-A*03:01, which is more prevalent in Caucasians ([72]). We identified 13 binders for HBx and 33 for Pol across HLA supertypes, including novel binders that have been described previously in the context of another HLA type (Fig. 5A to G, dotted underlining, and Fig. 5H). […] In contrast, binding of infrequently reported epitopes (Fig. 5, solid underlining) could not always be verified.
(§2) Synthetic peptides (Peptide 2.0 Inc.) of selected potential HLA binders were used in an in vitro binding assay as described previously ([96]). […] Subsequently, the peptide exchange efficiency was analyzed using an HLA-I enzyme-linked immunosorbent assay (ELISA), which detects beta-2-microglobulin of peptide-stabilized HLA-I complexes in an exchange reaction mixture. […] The reaction was stopped after 8 min (incubation at room temperature) by the addition of a 2% (wt/vol) oxalic acid dihydrate stop solution (Sanquin Reagents BV) and read in a Thermo Electron Multiskan Ascent ELISA reader at 414 nm. […] Every exchange mixture was measured in duplicate by the HLA-I ELISA. […]

[1] = test system: PBMCs from blood donors who had previously resolved an HBV infection; assay: Immunogenicity: IFN-γ ELISA on peptide-expanded PBMCs of HBV resolvers; assay type: cell-based, human; details: for number of responsive donors as a fraction of the total number of subjects tested: PBMCs expanded 14 days, restimulated 48 h, 10 μg/ml/peptide, response = mean OD ≥ mean + 2 SD of DMSO; for IFN-γ production in response to peptide, in words: expanded PBMCs from 9 HBV resolvers, HLA-matched, single-peptide restimulation 48 h, 10 μg/ml, DMSO-subtracted
Protocol: Finally, the immunogenicity of all HBx- and Pol-derived binders was assessed to determine which binders would be most interesting for the development of an antigen-based HBV-targeting immunotherapy.
Briefly, PBMCs were isolated by Ficoll (GE Healthcare) density centrifugation from buffy coats of 9 donors who had previously resolved HBV infection. Buffy coats were provided by the local blood bank with corresponding 2-digit HLA types. Four-digit HLA typing was performed for 7 out of 9 donors using the global screening array (GSA) (Illumina through the Human Genomics Facility, Erasmus MC Rotterdam) (Table 3). All donors gave written informed consent. PBMCs were cultured in Iscove’s modified Dulbecco’s medium (IMDM) (Lonza) containing 2% human serum (Sanquin) and 50 IU/ml human interleukin-2 (hIL-2) (Miltenyi) in the presence of peptide pools of a maximum of 5 peptides of interest based on HLA matching at 10 μg/ml/peptide. After 14 days, 200,000 cells were restimulated with the peptides of interest for 48 h at 37°C with 10 μg/ml/peptide in triplicate. Supernatants from restimulations were subsequently used in a human IFN-γ (hIFN-γ) ELISA (BioLegend) according to the manufacturer’s instructions. Plates were read at a 450-nm wavelength using an Infinite 200Pro ELISA reader. hIFN-γ levels were calculated from background-subtracted optical density (OD) values (means from triplicates) using a supernatant derived from a previously successful restimulation with c18-27 that was quantified in a separate ELISA using the hIFN-γ standard provided by the manufacturer. HLA binders with a mean OD value of at least the mean plus 2 times the standard deviation (SD) of the dimethyl sulfoxide (DMSO) control were quantified.

cytotoxic T cells = details: HLA-A*24:02 peptide, ref Yamamiya et al. [89]; cited from earlier work
Source text: We identified a few novel epitopes for which the sequence overlaps that of an epitope that has previously been described for the HLA type tested. […] It would now be interesting to investigate how responses to these epitope variants relate in CHB patients, especially since p755-764 has been the only HBV-derived epitope described for supertype HLA-A*24 until very recently. For HLA-A*24:02, we studied the binding cap ...

HLA-B*08:01 = HLA-B*08:01 (Homo sapiens, UniProt P01889, A93T/A95T/D138N/E176V/E187T/K202T/Q94N/R180D/S35A/V36M/Y33D/Y91F); assay: UV-based in vitro HLA binding assay (peptide exchange + HLA-I ELISA), HLA-B*08:01; details: conditional pHLA 0.53 μM, peptide 50 μM, 30 min 366-nm UV, absorbance 414 nm normalized to high-affinity positive control (100%), two exchanges, each in duplicate
Source text: Nonbound material was removed by washing. […] Every peptide was independently exchanged twice.

HLA-B*07:02 = HLA-B*07:02 (Homo sapiens, UniProt P01889); assay: UV-based in vitro HLA binding assay (peptide exchange + HLA-I ELISA), HLA-B*07:02; details: conditional pHLA 0.53 μM, peptide 50 μM, 30 min 366-nm UV, absorbance 414 nm normalized to high-affinity positive control (100%), two exchanges, each in duplicate
Protocol: as §1, §2

Row | Sequence | % responders (no. of responders/total no. of subjects tested), HCC (HBV-specific T cells) | % responders (no. of responders/total no. of subjects tested), Chronic (HBV-specific T cells) | % responders (no. of responders/total no. of subjects tested), Acute (HBV-specific T cells) | also measured
1 | ALMPLYACI [p653-661] | 0 (0/10) % | 0 (0/9) % | 20 (4/20) % | –
2 | ASFCGSPYSW [p166-175] | – | – | – | HLA binding class (binder/nonbinder), HLA-A*24:02 (HLA-A*24:02): binder (binders (>25% of the positive control))
3 | CLFKDWEEL | 50 (3/6) % | – | – | –
4 | FLLSLGIHL [p573-581] | 0 (0/10) % | 13 (9/70) % | 59 (50/85)* % | –
5 | GLSRYVARL [p453-461] | 0 (0/10) % | 6 (5/87) % | 50 (39/78)* % | –
6 | GYPALMPLY [p650-658] | – | – | – | number of responsive donors as a fraction of the total number of subjects tested ([1]; HLA-A*24:02 donors): 1 of the 2; responding HBV resolvers (cytotoxic T cells): none of the 3
7 | HLSLRGLPV [x52-60] | 19 (3/16) % | 0 (0/20) % | – | HLA binding class (binder/nonbinder), HLA-B*08:01 (HLA-B*08:01): binder (binders (>25% of the positive control))
8 | HPAAMPHLL [p440-448] | – | – | 0 (0/12) % | –
9 | HTLWKAGILYK [p149-159] | – | – | 5 (1/22) % | –
10 | ILRGTSFVYV | – | 0 (0/9) % | 43 (3/7) % | –
11 | KLVCSPAPC | 50 (3/6) % | – | – | –
12 | KVGNFTGLY [p55-63] | – | – | 9 (2/22) % | –
13 | KYTSFPWLL [p756-764] | – | 48 (10/21) % | 93 (13/14)* % | –
14 | LVVDFSQFSR [p388-397] | – | – | 5 (1/22) % | –
15 | NLSWLSLDV [p422-430] | 0 (0/10) % | – | – | –
16 | NVSIPWTHK [p47-55] | – | – | 5 (1/21) % | –
17 | QAFTFSPTYK [p665-674] | – | – | 14 (3/21) % | –
18 | QLDPARDVL | 0 (0/10) % | 0 (0/20) % | 25 (1/4) % | –
19 | RKYTSFPWLL [p755-764] | – | – | – | IFN-γ production in response to peptide, in words [1]: superior IFN-γ production compared to the known epitope p756-764 in both donors tested
20 | SAICSVVRR | – | – | 9 (2/22) % | –
21 | SLYADSPSV [p814-822] | – | 0 (0/22) % | 25 (11/44)* % | –
22 | TLWKAGILYK [p150-159] | – | – | 18 (5/28) % | –
23 | TPARVTGGVF [p365-374] | – | – | 17 (2/12) % | number of responsive donors as a fraction of the total number of subjects tested ([1]; HLA-B*07:02 donors): 4/4; HLA binding class (binder/nonbinder), HLA-B*07:02 (HLA-B*07:02): binder (binders (>25% of the positive control))
24 | VLGGCRHKL [x133-141] | 0 (0/10) % | 0 (0/20) % | – | –
25 | VLHKRTLGL [x92-100] | 19 (3/16) % | 0 (0/20) % | – | HLA binding class (binder/nonbinder), HLA-B*08:01 (HLA-B*08:01): binder (binders (>25% of the positive control))
26 | YLHTLWKAGI [p147-156] | 0 (0/10) % | – | – | –
27 | YMDDVVLGA [p549-557] | 0 (0/10) % | 0 (0/21) % | 15 (2/13) % | IFN-γ production in response to peptide, in words [1]: IFN-γ production was detected
28 | YPALMPLYA [p651-659] | – | – | 0 (0/12) % | –

Source: PMC7081907, “Discovery and Selection of Hepatitis B Virus-Derived T Cell Epitopes for Global Immunotherapy Based on Viral Indispensability, Conservation, and HLA-Binding Strength” (Journal of Virology, 2020)
